Reference: US20240239895A1, “COMBINATION THERAPY WITH A RAF INHIBITOR AND A PD-1 AXIS INHIBITOR” (Genentech, Inc., priority 2021, published 2024)

Assays:
[1] = tested on: K1735 melanoma cells carrying the NRASG13D mutation; assay: K1735 syngeneic mouse model, tumor growth; assay type: in vivo
From the text: Example 1 evaluated the efficacy of belvarafenib monotherapy, atezolizumab monotherapy, a combination therapy of belvarafenib and atezolizumab in a mutant K1735 subcutaneous mouse model.
The mouse strain was C3H/HeNCrlOri which is widely used for the K1735 syngeneic model. The mice were supplied by Orient Bio Inc., Korea.
The cell line was K1735 and was supplied by the American Type Culture Collection (ATCC). The K1735 cells are melanoma cells carrying the NRASG13D mutation. The cell culture in vitro media was Roswell Park Memorial Institute (RPMI) 10% fetal bovine serum (FBS) and incubation was at 5% C02 and 37° C. For the K1735 syngeneic model, cancer cells (1.5×10^8 cells/10 mL) were mixed with Hank's balanced salt solution (HBSS) and injected subcutaneously at 0.1 mL/head. Seven animals per group were treated with the vehicle (control), belvarafenib monotherapy at 7.5 mg/kg, belvarafenib monotherapy at 15 mg/kg, atezolizumab monotherapy at 10 mg/kg, belvarafenib (7.5 mg/kg) and atezolizumab (10 mg/kg) combination therapy, and belvarafenib (15 mg/kg) and atezolizumab (10 mg/kg) combination therapy. The experiment was done using 1st generation tumor tissue.
Belvarafenib dihydrochloride, 99.6% purity, that was stored at room temperature was used. Dosing was based on active ingredient free base and was corrected for assay and water content. The dosing vehicle was DMSO (5%), cremophore EL (5%), and deionized water (90%). Belvarafenib for dosing was dissolved in the vehicle. Belvarafenib oral doses of 7.5 mg/kg and 15 mg/kg were evaluated as monotherapies and in combination with atezolizumab. Belvarafenib was dose daily for 21 days.
Atezolizumab (TECENTRIQ©) that was stored at 2-8° C. was used. The dosing vehicle was saline and the dosing concentration was 5 mL/kg. An atezolizumab intravenous dose of 10 mg/kg was evaluated as a monotherapy and in combination with 7.5 mg/kg and 15 mg/kg belvarafenib. Atezolizumab was dosed three times a week for 3 weeks.
Tumor size. Tumor size was assessed by digital caliper (MITUTOYO CD-15CPX, MonotaRO Singapore, Japan) twice a week during the dosing period and calculated using the formula for an ellipsoid sphere (V=L×S2/2=mm3, where L=long diameter, and S=short diameter). Tumor size was recorded on the day of the body weight measurement and data was recorded on a tumor volume record sheet.
Relative tumor volume (RTV). RTV(%)=tumor volume/initial tumor volume×100.
Tumor Growth (TG). TG (%)=RTVdayx/RTVday0×100.
Relative tumor growth (RTG). The ratio of mean tumor volume on last measurement day to the mean tumor volume on Day 0.
Inhibition rate (IR). Inhibition of tumor growth was calculated relative to vehicle-treated controls. IR (%)=(1−mean relative tumor weight in treated group/mean relative tumor weight in control group)×100.
Maximum inhibition rate (MIR). MIR was the highest recorded IR (%) among the measured inhibition rate (%).
Statistical analysis of tumor size was performed with GraphPad Prism version 6 (GraphPad software, Inc., USA). Values were expressed as S.E.M. The significance of differences among multiple groups was assessed using a 2-way ANOVA. Post hoc pairwise comparison between groups was tested for significance using Dennett's method.

[2] = tested on: BRAF- or RAS-mutant melanoma, NSCLC, CRC, and thyroid cancer cell lines; assay: growth of cancer cell lines in vitro; assay type: cell-based
[3] = tested on: tumor infiltrated CD3+CD8+ T cells; assay: flow cytometry of tumor infiltrated CD3+CD8+ T cells, K1735 model; assay type: in vivo, mouse; conditions: belvarafenib 15 mg/kg oral QDx21; tumor tissue at end of experiment
Protocol: Flow cytometry was used for tumor infiltrated CD3+CD8+ T cells analysis using BD FACSCanto™ IL (BD Biosciences) and FlowJo™ v 10.6.2 software (BD Biosciences). At the end of the experiment, tumor tissue, excluding mono and combination therapy groups using belvarafenib 7.5 mg/kg, were collected for evaluation of pharmacodynamics. Tumors were surgically dissected, washed twice with phosphate-buffered saline (PBS), and then chopped into 1 mm3 pieces. The chopped tumor pieces were digested in 7 mL of dissociation medium (RPMI medium with 10% FBS, collagenase type II at 2 mg/mL, collagenase type IV at 2 mg/mL, and DNase I at 1 mg/mL) for 30 minutes at 37° C., and filtered through a 70 μm cell strainer (BD Pharm, USA). The filtered cells were then washed twice with PBS. Remaining red blood cells were lysed using ammonium-chloride-potassium (ACK) solution. The cells, which had dissociated into single cells, were stained with Fe block (anti CD16/32, Ref. 14-0161-82, Invitrogen, USA) at 4° C. for 15 minutes to prevent nonspecific antibody binding. The cells were then stained with appropriate antibodies at 4° C. for 30 minutes. To assess the presence of CD3+CD8+ T cell population, cells were stained with PE Cy7-conjugated anti-CD3e (1:100 dilution) (clone: 145-2C11, Invitrogen, USA) and FITC-conjugated anti-CD8a (1:100 dilution) (clone: 53-6.7, Invitrogen, USA).

[4] = K1735 syngeneic mouse model, body weight and clinical signs; assay type: in vivo
Protocol: Body weight. Body weight measurement was performed twice a week during the dosing period.
Relative body weight. Relative body weight (%)=body weight (g)/initial body weight (g)×100.
Maximum weight loss (MWL). MWL was the highest recorded weight loss (%) among the measured weight loss (%).

[5] = tested on: BRAF- and NRAS-mutant melanoma, KRAS mutant NSCLC, BRAF mutant CRC xenografts; assay: mouse xenograft models, monotherapy; assay type: in vivo
From the text: The in vitro antitumor effects of belvarafenib have translated into efficacy in various mouse xenograft models.

[6] = tested on: phosphorylation of MEK and ERK in the MAPK pathway; assay: MEK and ERK phosphorylation in cancer cell lines; assay type: cell-based; conditions: BRAF- or RAS-mutant melanoma, NSCLC, and CRC cell lines
[7] = Phase I relative bioavailability and food effect study in healthy subjects; assay type: in vivo; conditions: 200 mg single dose
Protocol: In another Phase I, single dose, randomized, crossover relative bioavailability and food effect study in healthy subjects, the influence of a formulation change from the Phase I to Phase II tablet on belvarafenib exposure was evaluated. A total of 18 healthy subjects were enrolled in the study and received the following randomized treatments: one 150-mg and one 50-mg Phase I tablet in a fed state, two 100-mg Phase II tablets in a fed state, or two 100-mg Phase II tablets in a fasted state, with a 18-day washout between treatments.

[8] = belvarafenib 7.5 mg/kg oral QDx21
[9] = belvarafenib 15 mg/kg oral QDx21

Cc1ccc2c(Nc3cccc(Cl)c3F)nccc2c1NC(=O)c1csc2c(N)ncnc12 [Belvarafenib, 4-amino-N-(1-((3-chloro-2-fluorophenyl)amino)-6-methylisoquinolin-5-yl)thieno[3,2-d]pyrimidine-7-carboxamide]
MIR / Max Inhib. (maximum inhibition rate) [1, 8]: 48.2%
MTV21 (mean tumor volume on day 21 of treatment) [1, 8]: 2014.8 mm^3
RTG (relative tumor growth) [1, 8]: 12.2
MIR / Max Inhib. (maximum inhibition rate) [1, 9]: 54.7%
MTV21 (mean tumor volume on day 21 of treatment) [1, 9]: 1816.8 mm^3
RTG (relative tumor growth) [1, 9]: 11.0
IR (Day 21) (inhibition rate, tumor growth inhibition) [1, 8]: 48.2%
IR (Day 21) (inhibition rate, tumor growth inhibition) [1, 9]: 54.7%
inhibition of cell line growth [2]: inhibit the growth
CD3^+CD8^+ T cells (%) [3]: 1.27%
MWL / Max Wt. (maximum weight loss) [4, 8]: 2.8%
MWL / Max Wt. (maximum weight loss) [4, 9]: 2.2%
inhibition of tumor growth [5]: dose-dependent inhibition of tumor growth
inhibition of phosphorylation of MEK and ERK [6]: inhibits phosphorylation of MEK and ERK
serious adverse events, adverse events of special interest, deaths [7]: No serious adverse events, adverse events of special interest, or deaths were reported
